From PMC12298876, “Angiotensin-Converting Enzyme Inhibitory Activity of Selected Phenolic Acids, Flavonoids, Their O-Glucosides, and Low-Molecular-Weight Phenolic Metabolites in Relation to Their Oxidation Potentials” (Metabolites, 2025)
Like-named read-outs stand apart in the source and are kept apart here. Marks after values point to notes of the source that are not given here.

Experiments:
[1] = target: T1, Angiotensin-converting enzymes (ACE) from porcine kidneys (EC 3.4.15.1) (Sus scrofa, UniProt F1RRW5); experiment: biochemical; conditions: for lower IC50 in relation to the respective aglycone: glycoside vs aglycon
T1 construct: Angiotensin-converting enzymes (ACE) from porcine kidneys (EC 3.4.15.1) were purchased from Sigma-Aldrich; purchased Sigma-Aldrich (St. Louis, MO, USA); host or cells: porcine kidneys (tissue-derived enzyme)
T1 sequence (F1RRW5 34-1309): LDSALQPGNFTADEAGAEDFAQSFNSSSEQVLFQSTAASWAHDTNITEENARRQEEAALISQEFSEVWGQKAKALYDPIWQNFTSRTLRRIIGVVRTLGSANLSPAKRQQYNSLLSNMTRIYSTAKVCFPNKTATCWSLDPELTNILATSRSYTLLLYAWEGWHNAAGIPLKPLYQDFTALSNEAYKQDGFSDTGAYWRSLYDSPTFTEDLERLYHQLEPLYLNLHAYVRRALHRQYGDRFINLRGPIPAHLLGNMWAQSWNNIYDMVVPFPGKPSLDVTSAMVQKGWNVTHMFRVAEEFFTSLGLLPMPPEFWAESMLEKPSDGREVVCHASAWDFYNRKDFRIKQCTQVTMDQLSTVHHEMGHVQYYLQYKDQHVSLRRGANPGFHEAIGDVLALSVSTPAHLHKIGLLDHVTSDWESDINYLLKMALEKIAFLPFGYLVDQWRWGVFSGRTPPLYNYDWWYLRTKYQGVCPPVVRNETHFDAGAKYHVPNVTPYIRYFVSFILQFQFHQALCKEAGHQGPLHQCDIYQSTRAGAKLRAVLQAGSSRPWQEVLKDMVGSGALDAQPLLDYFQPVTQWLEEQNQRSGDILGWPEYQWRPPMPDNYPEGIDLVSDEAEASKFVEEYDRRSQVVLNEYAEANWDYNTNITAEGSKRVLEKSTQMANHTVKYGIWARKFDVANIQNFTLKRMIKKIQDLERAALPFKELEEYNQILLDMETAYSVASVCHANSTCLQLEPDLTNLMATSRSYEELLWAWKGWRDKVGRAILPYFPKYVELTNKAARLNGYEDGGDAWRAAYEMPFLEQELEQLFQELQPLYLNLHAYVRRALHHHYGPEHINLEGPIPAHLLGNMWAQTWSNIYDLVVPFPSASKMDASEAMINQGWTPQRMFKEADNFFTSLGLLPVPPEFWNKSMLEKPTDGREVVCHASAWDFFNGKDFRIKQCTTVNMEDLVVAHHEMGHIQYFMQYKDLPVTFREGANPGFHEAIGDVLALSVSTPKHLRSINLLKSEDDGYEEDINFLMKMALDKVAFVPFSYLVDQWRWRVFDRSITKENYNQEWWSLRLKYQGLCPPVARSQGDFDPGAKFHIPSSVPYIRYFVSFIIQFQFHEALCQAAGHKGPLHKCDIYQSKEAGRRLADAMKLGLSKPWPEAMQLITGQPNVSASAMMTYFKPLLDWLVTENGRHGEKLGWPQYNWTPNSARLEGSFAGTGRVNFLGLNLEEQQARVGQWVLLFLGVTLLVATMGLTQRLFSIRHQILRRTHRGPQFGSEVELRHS
Description: Angiotensin-converting enzymes (ACE) from porcine kidneys (EC 3.4.15.1) were purchased from Sigma-Aldrich (St. Louis, MO, USA). A three-tris-base buffer was as follows: buffer A: 300 mM Tris-base buffer (pH 8.3) with 2 mM ZnCl2; buffer B: 150 mM Tris-base buffer (pH 8,3); and buffer C: 150 mM Tris-base buffer (pH 8.3) with […] NaCl. The substrate o-aminobenzoylglycyl-p-nitorphenylalanylproline (Abz-Gly-Phe(NO2)-Pro) was obtained from BACHEM (Bubendorf, Switzerland). Standards of phenolic acids, flavonoids, glucosides, and low-molecular-weight phenolic metabolites were obtained from Sigma-Aldrich (St. Louis, MO, USA) and Extrasynthese (Genay, France). Water was purified using the Mili-Q system (Milipore, Bedford, MA, USA).
Stock solutions at 1 mM of selected phenolic acids, flavonoids, their O-glucosides, and low-molecular-weight phenolic metabolites were prepared in 80% methanol. The concentration was confirmed by a UV measurement according to Franke et al.. A wide range of concentrations of each compound was prepared by serial dilutions in deionized water to determine the IC50 value. […] The ACE inhibitory activity was obtained from three repetitions (n = 3) for each concentration.
Angiotensin-converting enzyme (ACE) activity inhibitory assay was performed according to the method of Sentandreu and Toldra. The procedure was based on the hydrolysis of the internally quenched substrate o-aminobenzoylglycyl-p-nitorphenylalanylproline (Abz-Gly-Phe(NO2)-Pro) by the reaction of ACE. The fluorescence generated by the liberation of the product (the o-aminobenzoylglycine group) was read in a microplate multiscan fluorometer. The production of fluorescence was inhibited by the presence of functional compounds with an ACE inhibitory effect. The fluorescence was measured immediately after mixing (0 min) and then after 30 min of reaction at an excitation of 365 nm and an emission of 405 nm. To calculate the % of inhibition of ACE, the following equation was used:Relative ACE activity% = 100 − (ΔRFUsample × 100/ΔRFUnegative control), where ΔRFU = RFU at time 30 – RFU at time 0.

[2] = First anodic oxidation potential by differential pulse voltammetry (DPV); assay type: physicochemical; conditions: for Anodic Peak Potential Epa: DPV, first anodic peak, 0.25 mM standard in 0.1 M Britton-Robinson buffer pH 6.0 in 80% methanol, glassy carbon vs Ag/AgCl, 100 mV/s; for antioxidant power class based on the first oxidation potential: classes according to Blasco et al. [47]
Description: A potentiostat/galvanostat G 750 (Gamry Instruments, Warminster, USA) was used for voltametric experiments. A conventional three-electrode system: a 3 mm diameter glassy carbon working electrode (BAS MF-2012), an Ag/AgCl electrode as a reference electrode, and a platinum as counter electrode, was used in the study. Differential pulse voltametric experiments were performed with phenolic acids and flavonoids prepared in a 1:1 (v/v) mixture of 500 µM standard solution and […] Britton-Robinson (B-R) buffer (pH 6.0 in 80% methanol), which also served as a supporting electrolyte. The voltametric experiments were performed at room temperature using an electrochemical cell (volume 200 µL), to which the analyzed standard solution, mixed previously with the buffer solution, was introduced. The differential pulse voltammograms were acquired in the range of −100 to 1300 mV at a scanning rate of 100 mV/s. Before use, the surface of the glassy carbon electrode was carefully polished with 0.05 µm alumina paste, ultrasonically rinsed in deionized water, and then washed with methanol. This procedure was repeated after each cycle. For test purposes, the first anodic oxidation potential was recorded (mV).

[3] = porcine kidney ACE, substrate Abz-Gly-Phe(NO2)-Pro, fluorescence after 30 min, mean ± SD, read-out: IC50 Value (ACE inhibitory activity)
[4] = low-molecular-weight phenolic metabolites
[5] = values of this study restated in mM in the discussion, read-out: IC50 (ACE inhibition)
[6] = IC50 Value (ACE inhibitory activity), porcine kidney ACE, substrate Abz-Gly-Phe(NO2)-Pro, fluorescence after 30 min, mean ± SD

SMILES | IC50 [1, 3] [mM] | Anodic Peak Potential Epa [2] | also measured
O=C(O)CCc1ccccc1O [2-HPPA, 3-(2-hydroxyphenyl)propionic acid] | 0.9329 ± 0.00642 | 781 ± 9 ^d mV | antioxidant power class based on the first oxidation potential [2, 4]: moderate antioxidant power (moderate antioxidant power (0.3 V < Epa < 0.8 V))
COc1cc(/C=C/C(=O)O)ccc1O [Ferulic acid] | 0.98 ± 0.0136 | 611 ± 6 ^c mV | IC50 [1, 5]: 0.98 mM
O=C(O)c1ccc(O)c(O)c1 [Protocatechuic acid] | 6.235 ± 0.042 | 417 ± 12 ^e mV | IC50 [1, 5]: 6.24 mM; Anodic Peak Potential Epa ([2]; listed as protocatechuic acid): 417 mV
O=c1cc(-c2ccc(OC3OC(CO)C(O)C(O)C3O)c(O)c2)oc2cc(O)cc(O)c12 (stereo not shown) [Luteolin-4′-O-glucoside] | 0.0889 ± 0.00168 | 828 ± 5 ^b mV | higher value of IC50 as compared to the IC50 of the respective aglycon ([1]; ACE inhibition, glucoside vs aglycon): 15%
O=c1c(OC2OC(CO)C(O)C(O)C2O)c(-c2ccc(O)cc2)oc2cc(O)cc(O)c12 (stereo not shown) [Kaempferol-3-O-glucoside] |  | 359 ± 3 ^fg mV | lower IC50 in relation to the respective aglycone ([1]; ACE inhibition): 16%; IC50 [1, 6]: 0.11 ± 0.00356 mM
O=C(O)Cc1ccc(O)cc1 [4-HPAA, 4-hydroxyphenylacetic acid] | 1.391 ± 0.0102 | 815 ± 12 ^c mV | antioxidant power class based on the first oxidation potential [2, 4]: weak antioxidant power (weak antioxidant power (Epa ˃ 0.8 V))
O=C(/C=C/c1ccc(O)c(O)c1)O[C@@H]1C[C@](O)(C(=O)O)C[C@@H](O)[C@H]1O [Chlorogenic acid] | 0.134 | 443 ± 9 ^d mV | ACE inhibitory activity lower than that of reduced glutathione (GSH) ([1]; ratio to the IC50 of GSH): threefold
O=C(O)Cc1cccc(O)c1 [3-HPAA, 3-hydroxyphenylacetic acid] | 0.679 ± 0.0077 | 883 ± 11 ^b mV | antioxidant power class based on the first oxidation potential [2, 4]: weak antioxidant power (weak antioxidant power (Epa ˃ 0.8 V))
O=C(O)CCc1ccc(O)cc1O [3-2,4-DHPPA, 3-(2,4-dihydroxyphenyl)propionic acid] | 0.745 ± 0.00833 | 659 ± 8 ^e mV | antioxidant power class based on the first oxidation potential [2, 4]: moderate antioxidant power (moderate antioxidant power (0.3 V < Epa < 0.8 V))
COc1cc(C(=O)O)cc(OC)c1O [Syringic acid] | 2.76 ± 0.0363 | 731 ± 9 ^a mV | 
COC(=O)CCc1ccc(O)cc1 [MET, 3-(4-hydroxyphenyl)propionic methyl ester] | 0.726 ± 0.00571 | 574 ± 5 ^f mV | antioxidant power class based on the first oxidation potential [2, 4]: moderate antioxidant power (moderate antioxidant power (0.3 V < Epa < 0.8 V))
Oc1ccc(-c2[o+]c3cc(O)cc(O)c3cc2O)cc1 [Pelargonidin] | 0.293 ± 0.0034 | 228 ± 5 ^j mV | 
Oc1cc(O)c2cc(O)c(-c3cc(O)c(O)c(O)c3)[o+]c2c1 [Delphinidin] |  | 259 ± 3 ^i mV | IC50 [1, 6]: 0.2477 ± 0.00185 mM
COc1cc(C(=O)O)ccc1O [Vanillic acid] | 4.11 ± 0.0483 | 748 ± 10 ^a mV | Anodic Peak Potential Epa ([2]; listed as vanillic acid): 748 mV
Oc1cc(O)c2cc(O)c(-c3ccc(O)c(O)c3)[o+]c2c1 [Cyanidin] | 0.176 ± 0.00238 | 295 ± 3 ^h mV | antioxidant power class based on the first oxidation potential ([2]; flavonoids and glucosides): high antioxidant power (high antioxidant power (Ep < 0.3 V))
O=C(O)C=Cc1ccc(O)cc1 [p-Coumaric acid] | 0.315 ± 0.0098 | 672 ± 10 ^b mV | Anodic Peak Potential Epa ([2]; listed as p-coumaric acid): 672 mV
O=C1CC(c2ccc(O)cc2)Oc2cc(OC3OC(CO)C(O)C(O)C3O)cc(O)c21 (stereo not shown) [Naringenin-7-O-glucoside] | 0.3572 ± 0.00199 | 830 ± 8 ^ab mV | lower IC50 in relation to the respective aglycone ([1]; ACE inhibition): 9%
O=C1C[C@@H](c2ccc(O)cc2)Oc2cc(O)cc(O)c21 [Naringenin] | 0.391 | 819 ± 7 ^bc mV | 
O=c1cc(-c2ccc(O)cc2)oc2cc(OC3O[C@H](CO)[C@@H](O)[C@H](O)[C@H]3O)cc(O)c12 (stereo partly shown) [Apigenin-7-O-glucoside] | 0.218 ± 0.00253 | 841 ± 6 ^ab mV | lower IC50 in relation to the respective aglycone ([1]; ACE inhibition): 35%
N[C@@H](CCC(=O)N[C@@H](CS)C(=O)NCC(=O)O)C(=O)O [GSH, reduced glutathione, reference compound] | 0.0417 |  | 
